From US8557574B2, “Fungal growth inhibitor” (Seikagaku Corporation, priority 2006, dated 2013)

Columns and labels:
Candida albicans [1] = test: Analysis of the activity of inhibiting Candida growth of HA (absorbance at 660 nm); type: cell-based; details: Candida albicans 5×10^5 cells/mL, 9 hours with HA of various concentration (0.1, 1.0 mg/mL) and weight average molecular weight; FIG. 3
Method: Co-culture of HA and Candida was carried out in 100 μl of a medium using a 96 well plate (manufactured by Iwaki). Candida albicans was prepared by growing it at 37° C. overnight in the GP broth under an aerobic condition. The Candida albicans culture mixture was incubated at 37° C. for 9 hours under a condition of 10% CO2 in the presence of various final concentrations (0.1 mg/mL, 1.0 mg/mL) of HA having various sizes (tetradecasaccharide, weight average molecular weight 60 kDa, 250 kDa, 800 kDa or 2,000 kDa).
(§1) After completion of the incubation, in order to evaluate the degree of growth of each Candida species, the culture medium was thoroughly mixed, and its absorbance at a wavelength of 660 nm was measured. Hereinafter, absorbance of the sample incubated in the presence of HA is referred to as “ODtest”. As a control, the absorbance at a wavelength of 660 nm was measured using a sample of each Candida species incubated in the same manner in the absence of HA. Hereinafter, absorbance of this control is referred to as “ODcontrol”.
(§2) Growth inhibition ratio (%) was calculated from the value of “ODtest” and the value of “ODcontrol” of its corresponding Candida species based on the following formula. Growth inhibition ratio (%)=(1−ODtest/ODcontrol)×100 (1-5-2) Quantitative Plate Count […]

[2] = test system: Candida glabrata ATCC 2001, Candida krusei ATCC 6258 and Candida tropicalis ATCC 4563; test: Activity of inhibiting growth for various Candida species by HA (absorbance at 660 nm); type: cell-based; details: other Candida species 5×10^5 cells/mL, 9 hours with HA of 2,000 kDa; FIG. 5
Method: Additionally, other Candida species (Candida glabrata ATCC 2001, Candida krusei ATCC 6258 and Candida tropicalis ATCC 4563) were prepared by allowing them to grow at 37° C. overnight in the GP broth under an aerobic condition. Culture mixtures of these Candida species (cell density: 5×10^5) were incubated at 37° C. for 9 hours under a condition of 10% CO2 together with various final concentrations (0.1 mg/mL, 1.0 mg/mL) of HA having a weight average molecular weight of 2,000 kDa.
as §1, §2

Candida albicans [3] = test: Living body staining of Candida species (FDA/PI); type: cell-based; details: conclusion from living body staining
Method: Co-culturing of an epithelial cell with a Candida species (effector:target ratio (to be referred to as “E:T” hereinafter) is 20:1, 40:1 or 80:1) was carried out in 100 μl of a medium using a 96 well plate (manufactured by Costar). After 9 hours of incubation, the co-culture mixture was recovered and washed twice. Fluorescein diacetate (which stain living cells, to be referred to as “FDA” hereinafter) (50 μg/mL) and propidium iodide (which stain dead cells, to be referred to as “PI” hereinafter)(1 μg/mL) (both manufactured by Sigma) (Adv. Biochem. Eng. Biotechnol., 62, p. 33-73 (1998), Anal. Chem., 37, p. 1219-1221 (1965)) were simultaneously added to the pellet of cells and incubated at room temperature for 20 minutes in the dark. In this connection, optimum concentrations of the respective pigments were determined by a preliminary test.
After the incubation, the co-culture mixture was washed with PBS and then with PBS containing 20% FCS, respectively, and then again washed with PBS. The pellet was resuspended in 100 μl, of PBS, and a 5 μL thereof was put on a slide glass and observed under a fluorescent phase contrast microscope (DP-70 manufactured by Olympus Corporation). Growth inhibition of Candida species by the epithelial cell was confirmed by 9 hours of a growth inhibition assay. […]

Candida albicans [4] = test: Candida growth inhibition by cells after removal of cell surface HA with hyaluronidase (quantitative plate count); type: cell-based; details: various concentrations of hyaluronidase, E:T 80:1, FIG. 2
Method: The cells were treated using hyaluronidase (manufactured by Sigma) (50 units/10^6 cells) at 37° C. for 2 hours (J. Oral Sci., 45, p. 85-91 (2003)). The cells after the treatment were washed twice with phosphate buffered saline (pH 7.2, to be referred to as “PBS” hereinafter) and re-suspended in DMEM.
In order to monitor growth inhibition of Candida albicans, a quantitative plate count method was used (J. Infect. Dis., 182, p. 1479-1485 (2000), Infect. Immun., 69, p. 7091-7099 (2001), Med. Mycol., 37, p. 251-259 (1999)). In briefly describing, a co-culture mixture of the same effector and target was incubated at 37° C. for 9 hours under a condition of 5% CO2. […] It was incubated at 30° C. for 48 hours, and the colony forming unit (to be referred to as “CFU” hereinafter) was counted. Hereinafter, counted value of CFU of the sample incubated in the presence of HA is referred to as “test CFU”.
As a control, respective Candida species was incubated in the absence of HA, and this was subjected to the plating in the same manner. Hereinafter, counted value of CFU on the sample is referred to as “control CFU”.
Growth inhibition ratio (%) was calculated from the value of “test CFU” and the value of “control CFU” of its corresponding Candida species based on the following formula. […]

KB cells = test: MTT assay of hyaluronidase-treated cells; type: cell-based, human; details: hyaluronidase 10, 20 or 100 units/mL, data not shown
Method: (§3) Assay of living cells was carried out in the same manner as in the reported reference (Infect. Immun., 69, p. 5925-5930 (2001)).
(§4) In briefly describing, firstly, the COS-7 and KB cells were plated on a 96 well plate at a density of 5×10^5 cells/mL. Hyaluronidase (manufactured by Sigma) haying a respective concentration of 10, 20 or 100 units/mL was added to it, and Candida albicans was cultured for 20 hours. MTT solution (20 μg/mL) was added to each well at the final stage of the culturing, and the contents of the plate were incubated for 4 hours. By adding 100 μL of acidic isopropanol (isopropanol containing 0.04M HCl) to this, the red formazan was eluted and thoroughly mixed. Formazan concentration in the solution of each well was measured by a plate reader (manufactured by Dynex) using 570 nm as the testing wavelength and 620 nm as the reference wave length, respectively.

COS-7 = test: MTT assay of hyaluronidase-treated cells; type: cell-based, Cercopithecus aetiopus; details: COS-7 cells, hyaluronidase 10, 20 or 100 units/mL; data not shown
Method: as §3, §4

hyaluronic acid [HA]
activity of inhibiting the Candida albicans growth (growth inhibition ratio) (Candida albicans [1]): has activity of inhibiting the Candida albicans growth | activity of inhibiting growth for other Candida species (growth inhibition ratio) [2]: exerts its activity of inhibiting growth | nature of the activity of inhibiting Candida growth (bactericidal or bacteriostatic) (Candida albicans [3]): not bactericidal but rather bacteriostatic

hyaluronidase
activity of inhibiting Candida growth of the COS-7 cell after hyaluronidase treatment (Candida albicans [4]): reduced | influence upon the life or death of the cells (MTT) (KB cells): does not exert influence upon the life or death of the cells | influence upon the life or death of the cells (MTT) (COS-7): does not exert influence upon the life or death of the cells
